In article PMC6100082, “Pyridine-Ureas as Potential Anticancer Agents: Synthesis and In Vitro Biological Evaluation” (Molecules : A Journal of Synthetic Chemistry and Natural …, 2018):
Like-named read-outs stand apart in the source and are kept apart here.

How the values were obtained:
SNB-19 = assay: NCI one-dose SRB assay (CNS Cancer); format: cell-based, human; conditions: for inhibition at 10 µM: Homo sapiens, SNB-19, 10 μM, read-out: Percentage growth inhibition (GI%); for Growth Percent: SNB-19, 1.00E-5 Molar
Protocol: (§1) The structures of all the newly prepared pyridine-ureas 8a–n were submitted to the National Cancer Institute (NCI) Developmental Therapeutic Program. Eight compounds 8b, 8d, 8e, 8i, 8j and 8l–n were selected to be examined for their in vitro growth inhibitory activity. The anticancer assays were carried out according to the protocol of the Drug Evaluation Branch, NCI, Bethesda. The selected pyridine-ureas were tested at one dose primary anticancer assay against a panel of approximately 58 cancer lines (concentration 10^−5 M). The tested human cancer cell lines emerged from nine different cancer subtypes: leukemia, colon, melanoma, ovarian, lung, CNS, renal, breast and prostate cancers. The sulforhodamine B (SRB) protein assay was adopted to estimate the cell viability and growth. The results were reported as mean-graph of the percentage growth of the treated cells, and presented as percentage growth inhibition (GI%) caused by the test compounds (Table 2).
(§2) The anticancer assays were performed in accordance with the protocol of the Drug Evaluation Branch, NCI, Bethesda. A 48 h drug exposure protocol was used and sulforhodamine B (SRB) protein assay was applied to estimate the cell viability and growth, as reported earlier.

SF-295 = assay: NCI one-dose SRB assay (CNS Cancer); format: cell-based, human; conditions: for inhibition at 10 µM: Homo sapiens, SF-295, 10 μM, read-out: Percentage growth inhibition (GI%); for Growth Percent: SF-295, 1.00E-5 Molar
Protocol: as §1, §2

SNB-75 = assay: NCI one-dose SRB assay (CNS Cancer); format: cell-based, human; conditions: for inhibition at 10 µM: Homo sapiens, SNB-75, 10 μM, read-out: Percentage growth inhibition (GI%); for Growth Percent: SNB-75, 1.00E-5 Molar
Protocol: as §1, §2

SF-539 = assay: NCI one-dose SRB assay (CNS Cancer); format: cell-based, human; conditions: for inhibition at 10 µM: Homo sapiens, SF-539, 10 μM, read-out: Percentage growth inhibition (GI%); for Growth Percent: SF-539, 1.00E-5 Molar
Protocol: as §1, §2

SF-268 = assay: NCI one-dose SRB assay (CNS Cancer); format: cell-based, human; conditions: for inhibition at 10 µM: Homo sapiens, SF-268, 10 μM, read-out: Percentage growth inhibition (GI%); for Growth Percent: SF-268, 1.00E-5 Molar
Protocol: as §1, §2

U251 = assay: NCI one-dose SRB assay (CNS Cancer); format: cell-based, human; conditions: for inhibition at 10 µM: Homo sapiens, U-251, U251, 10 μM, read-out: Percentage growth inhibition (GI%); for Growth Percent: U251, 1.00E-5 Molar
Protocol: as §1, §2

HCT-15 = assay: NCI one-dose SRB assay (Colon Cancer); format: cell-based, human; conditions: for Growth Percent: HCT-15, 1.00E-5 Molar; for inhibition at 10 µM: Homo sapiens, HCT-15, 10 μM, read-out: Percentage growth inhibition (GI%)
Protocol: as §1, §2

SW-620 = assay: NCI one-dose SRB assay (Colon Cancer); format: cell-based, human; conditions: for inhibition at 10 µM: Homo sapiens, SW-620, 10 μM, read-out: Percentage growth inhibition (GI%); for Growth Percent: SW-620, 1.00E-5 Molar
Protocol: as §1, §2

HCC-2998 = assay: NCI one-dose SRB assay (Colon Cancer); format: cell-based, human; conditions: for Growth Percent: HCC-2998, 1.00E-5 Molar; for inhibition at 10 µM: Homo sapiens, HCC-2998, 10 μM, read-out: Percentage growth inhibition (GI%)
Protocol: as §1, §2

COLO 205 = assay: NCI one-dose SRB assay (Colon Cancer); format: cell-based, human; conditions: for Growth Percent: COLO 205, 1.00E-5 Molar; for inhibition at 10 µM: Homo sapiens, COLO 205, 10 μM, read-out: Percentage growth inhibition (GI%)
Protocol: as §1, §2

KM12 = assay: NCI one-dose SRB assay (Colon Cancer); format: cell-based, human; conditions: for inhibition at 10 µM: Homo sapiens, KM12, 10 μM, read-out: Percentage growth inhibition (GI%); for Growth Percent: KM12, 1.00E-5 Molar
Protocol: as §1, §2

HT29 = assay: NCI one-dose SRB assay (Colon Cancer); format: cell-based, human; conditions: for Growth Percent: HT29, 1.00E-5 Molar; for inhibition at 10 µM: Homo sapiens, HT-29, HT29, 10 μM, read-out: Percentage growth inhibition (GI%)
Protocol: as §1, §2

HCT-116 = assay: NCI one-dose SRB assay (Colon Cancer); format: cell-based, human; conditions: for Growth Percent: HCT-116, 1.00E-5 Molar; for inhibition at 10 µM: Homo sapiens, HCT-116, 10 μM, read-out: Percentage growth inhibition (GI%)
Protocol: as §1, §2

PC-3 = assay: NCI one-dose SRB assay (Prostate); format: cell-based, human; conditions: for inhibition at 10 µM: Homo sapiens, PC-3, 10 μM, read-out: Percentage growth inhibition (GI%); for Growth Percent: PC-3, 1.00E-5 Molar
Protocol: as §1, §2

DU-145 = assay: NCI one-dose SRB assay (Prostate); format: cell-based, human; conditions: for Growth Percent: DU-145, 1.00E-5 Molar; for inhibition at 10 µM: Homo sapiens, DU-145, 10 μM, read-out: Percentage growth inhibition (GI%)
Protocol: as §1, §2

NCI 58 cell line panel = assay: NCI one-dose SRB assay, whole panel / subpanel summary; format: cell-based, human; conditions: for inhibition at 10 µM: Homo sapiens, one dose, read-out: mean inhibition (mean % growth inhibition over NCI 58 cell line panel); for Mean Growth Percent: One Dose Mean Graph, 1.00E-5 Molar
Protocol: as §1, §2

SR = assay: NCI one-dose SRB assay (Leukemia); format: cell-based, human; conditions: for Growth Percent: 1.00E-5 Molar; for inhibition at 10 µM: Homo sapiens, read-out: Percentage growth inhibition (GI%)
Protocol: as §1, §2

HL-60(TB) = assay: NCI one-dose SRB assay (Leukemia); format: cell-based, human; conditions: for Growth Percent: 1.00E-5 Molar; for inhibition at 10 µM: Homo sapiens, read-out: Percentage growth inhibition (GI%)
Protocol: as §1, §2

K-562 = assay: NCI one-dose SRB assay (Leukemia); format: cell-based, human; conditions: for inhibition at 10 µM: Homo sapiens, K562, K-562, 10 μM, read-out: Percentage growth inhibition (GI%); for Growth Percent: K-562, 1.00E-5 Molar
Protocol: as §1, §2

CCRF-CEM = assay: NCI one-dose SRB assay (Leukemia); format: cell-based, human; conditions: for Growth Percent: 1.00E-5 Molar; for inhibition at 10 µM: Homo sapiens, read-out: Percentage growth inhibition (GI%)
Protocol: as §1, §2

RPMI-8226 = assay: NCI one-dose SRB assay (Leukemia); format: cell-based, human; conditions: for inhibition at 10 µM: Homo sapiens, RPMI-8226, 10 μM, read-out: Percentage growth inhibition (GI%); for Growth Percent: RPMI-8226, 1.00E-5 Molar
Protocol: as §1, §2

MOLT-4 = assay: NCI one-dose SRB assay (Leukemia); format: cell-based, human; conditions: for inhibition at 10 µM: Homo sapiens, MOLT-4, 10 μM, read-out: Percentage growth inhibition (GI%); for Growth Percent: MOLT-4, 1.00E-5 Molar
Protocol: as §1, §2

[1] = tested on: breast cancer MCF-7 cell line; assay: In vitro anti-proliferative activity, MTT assay; format: cell-based, human; conditions: Homo sapiens, MCF-7, MTT
Protocol: The in vitro anti-proliferative activity of the newly prepared pyridine-ureas 8a–n was examined against breast cancer MCF-7 cell line. The assay was carried out, as triplicates, utilizing the 3-(4,5-dimethylthiazol-2-yl)-2,5-diphenyltetrazolium bromide (MTT) colorimetric assay as described by T. Mosmann. Doxorubicin and Sorafenib were included in this assay as a reference drug.
MCF-7 (human breast cancer cell line) and WI-38 (human lung fibroblast cell line), were obtained from American Type Culture Collection (Manassas, VA, USA). The cells were propagated in DMEM and supplemented with 10% heat-inactivated FBS (Hyclone), 10 μg/mL of insulin (Manufacturer, Sigma, St. Louis, MO, USA), and 1% penicillin-streptomycin. MTT assay was utilized to examine the in vitro anti-proliferative activity of the newly prepared ureas following the reported procedures. […] The data presented are the mean of at least three separate experiments.

[2] = MCF7, 48 h, 48 h of incubation, read-out: IC50 48 h
[3] = MCF7, 72 h, 72 h of incubation, read-out: IC50 72 h

COc1ccc(-c2ccc(NC(=O)Nc3cccc(C(F)(F)F)c3)c(C)n2)cc1 [Compound 8b, 1-(6-(4-Methoxyphenyl)-2-methylpyridin-3-yl)-3-(3-(trifluoromethyl)phenyl) Urea]
inhibition at 10 µM (SNB-19): 33%
Growth Percent (SNB-19): 67.81%
inhibition at 10 µM (SF-295): 53%
Growth Percent (SF-295): 47.56%
inhibition at 10 µM (SNB-75): 23%
Growth Percent (SNB-75): 77.64%
inhibition at 10 µM (SF-539): 20%
Growth Percent (SF-539): 80.84%
inhibition at 10 µM (SF-268): 26%
Growth Percent (SF-268): 74.51%
inhibition at 10 µM (U251): 50%
Growth Percent (U251): 50.16%
Growth Percent (HCT-15): 40.87%
inhibition at 10 µM (HCT-15): 60%
inhibition at 10 µM (SW-620): 19%
Growth Percent (SW-620): 81.01%
Growth Percent (HCC-2998): 81.09%
inhibition at 10 µM (HCC-2998): 19%
Growth Percent (COLO 205): 84.52%
inhibition at 10 µM (COLO 205): 16%
inhibition at 10 µM (KM12): 55%
Growth Percent (KM12): 45.61%
Growth Percent (HT29): 47.65%
inhibition at 10 µM (HT29): 53%
Growth Percent (HCT-116): 26.93%
inhibition at 10 µM (HCT-116): 74%
inhibition at 10 µM (PC-3): 76%
Growth Percent (PC-3): 24.40%
Growth Percent (DU-145): 68.79%
inhibition at 10 µM (DU-145): 32%
melting point: 189 to 191 °C
inhibition at 10 µM (NCI 58 cell line panel): 43%
Mean Growth Percent (NCI 58 cell line panel): 57.47%
Growth Percent (SR): 36.30%
inhibition at 10 µM (SR): 64%
Growth Percent (HL-60(TB)): 49.75%
inhibition at 10 µM (HL-60(TB)): 51%
inhibition at 10 µM (K-562): 68%
Growth Percent (K-562): 32.55%
Growth Percent (CCRF-CEM): 42.94%
inhibition at 10 µM (CCRF-CEM): 58%
inhibition at 10 µM (RPMI-8226): 78%
Growth Percent (RPMI-8226): 22.58%
inhibition at 10 µM (MOLT-4): 67%
Growth Percent (MOLT-4): 33.74%
IC50 [1, 2]: 5.66 ± 0.45 µM
IC50 [1, 3]: 5.03 ± 0.29 µM

COc1ccc(-c2ccc(NC(=O)Nc3ccc(Cl)cc3)c(C)n2)cc1 [Compound 8d, 1-(4-Chlorophenyl)-3-(6-(4-methoxyphenyl)-2-methylpyridin-3-yl) Urea]
inhibition at 10 µM (SNB-19): < 10%
Growth Percent (SNB-19): 94.20%
inhibition at 10 µM (SF-295): < 10%
Growth Percent (SF-295): 97.10%
inhibition at 10 µM (SNB-75): 16%
Growth Percent (SNB-75): 84.87%
inhibition at 10 µM (SF-539): 16%
Growth Percent (SF-539): 84.16%
inhibition at 10 µM (SF-268): < 10%
Growth Percent (SF-268): 96.43%
inhibition at 10 µM (U251): 24%
Growth Percent (U251): 76.51%
Growth Percent (HCT-15): 85.74%
inhibition at 10 µM (HCT-15): 15%
inhibition at 10 µM (SW-620): 23%
Growth Percent (SW-620): 77.06%
Growth Percent (HCC-2998): 104.24%
inhibition at 10 µM (HCC-2998): < 10%
Growth Percent (COLO 205): 102.39%
inhibition at 10 µM (COLO 205): < 10%
inhibition at 10 µM (KM12): < 10%
Growth Percent (KM12): 93.09%
Growth Percent (HT29): 85.13%
inhibition at 10 µM (HT29): 15%
Growth Percent (HCT-116): 76.10%
inhibition at 10 µM (HCT-116): 24%
inhibition at 10 µM (PC-3): 24%
Growth Percent (PC-3): 76.01%
Growth Percent (DU-145): 98.63%
inhibition at 10 µM (DU-145): < 10%
melting point: 231 to 232 °C
inhibition at 10 µM (NCI 58 cell line panel): 14%
Mean Growth Percent (NCI 58 cell line panel): 86.24%
Growth Percent (SR): 43.88%
inhibition at 10 µM (SR): 57%
Growth Percent (HL-60(TB)): 79.74%
inhibition at 10 µM (HL-60(TB)): 21%
inhibition at 10 µM (K-562): 16%
Growth Percent (K-562): 84.35%
Growth Percent (CCRF-CEM): 81.43%
inhibition at 10 µM (CCRF-CEM): 19%
inhibition at 10 µM (RPMI-8226): 10%
Growth Percent (RPMI-8226): 90.15%
inhibition at 10 µM (MOLT-4): 28%
Growth Percent (MOLT-4): 72.42%
IC50 [1, 2]: 7.1 ± 0.38 µM
IC50 [1, 3]: 5.14 ± 0.46 µM
